ChEMBL document CHEMBL4130372, “The antitrypanosomal and antitubercular activity of some nitro(triazole/imidazole)-based aromatic amines” (Eur J Med Chem, 2017)
In brackets after ≈: the same amount, converted by molar mass. Activity calls are given as the source filed them. The calls are words filed in the database; no cut-off is given here.

Tests used:
[1] = Selectivity index, ratio of IC50 for rat L6 cells to IC50 for […] amastigotes infected in rat L6 cells; assay type: toxicity, cell-based; details: read-out: Ratio IC50
Trypanosoma cruzi [2] = assay: Antitrypanosomal activity against Trypanosoma cruzi Tulahuen C4 amastigotes infected in rat L6 cells after 96 hrs by CPRG/nonidet-based inverted microscopic analysis; assay type: functional, organism-based; details: Tulahuen C4, L6, 96 h
L6 = assay: Cytotoxicity against rat L6 cells assessed as reduction in cell viability after 2 days by cell-titer-glo luminescent assay; assay type: cell-based; details: L6, 48 h
[3] = tested on: Mycobacterium tuberculosis; assay: Antitubercular activity against Mycobacterium tuberculosis H37Rv ATCC 27294 expressing luxABCDE operon incubated for 10 days under hypoxic conditions followed by incubation under aerobic conditions for 28 hrs by LORA method; assay type: functional, organism-based
[4] = tested on: Trypanosoma brucei rhodesiense; assay: Antitrypanosomal activity against blood stream form of Trypanosoma brucei rhodesiense STIB900 trypomastigotes after 72 hrs by Alamar Blue assay; assay type: functional, organism-based; details: STIB900, 72 h
Trypanosoma cruzi [5] = assay: Potency index, ratio of benznidazole IC50 to compound IC50 for Trypanosoma cruzi Tulahuen C4; assay type: functional
[6] = tested on: Mycobacterium tuberculosis; assay: Antitubercular activity against Mycobacterium tuberculosis H37Rv ATCC 27294 after 5 days measured under aerobic conditions by fluorescence-based assay; assay type: functional, organism-based; details: H37Rv ATCC 27294, 120 h
[7] = Selectivity index, ratio of IC50 for rat L6 cells to IC50 for blood stream form of Trypanosoma brucei rhodesiense STIB900; assay type: toxicity; details: read-out: Ratio IC50
[8] = tested on: Mycobacterium tuberculosis; assay: Antitubercular activity against Mycobacterium tuberculosis RIF-R2 ATCC 35828 after 5 days by fluorescence-based assay; assay type: functional; details: RIF-R2 ATCC 35828, 120 h
[9] = tested on: Mycobacterium tuberculosis; assay: Antitubercular activity against Mycobacterium tuberculosis INH-R2 ATCC 35822 after 5 days by fluorescence-based assay; assay type: functional; details: INH-R2 ATCC 35822, 120 h
[10] = tested on: Mycobacterium tuberculosis; assay: Antitubercular activity against Mycobacterium tuberculosis H37Rv ATCC 27294 expressing […] infected in mouse J774 cells assessed as log reduction in intracellular bacterial burden at 30 uM after 4 days by luminescence assay; assay type: functional
[11] = tested on: Mycobacterium tuberculosis; assay: Antitubercular activity against Mycobacterium tuberculosis H37Rv ATCC 27294 expressing […] infected in mouse J774 cells assessed as log reduction in intracellular bacterial burden at 0.6 uM after 4 days by luminescence assay; assay type: functional
[12] = tested on: Mycobacterium tuberculosis; assay: Antitubercular activity against Mycobacterium tuberculosis H37Rv ATCC 27294 expressing luxABCDE operon at 100 uM incubated for 10 days under hypoxic conditions followed by incubation under aerobic conditions for 28 hrs by LORA method; assay type: functional
[13] = tested on: Mycobacterium tuberculosis; assay: Bactericidal activity against Mycobacterium tuberculosis H37Rv ATCC 27294 assessed as minimum concentration required to achieve a 2-log kill measured after 21 days under hypoxic conditions; assay type: functional; details: H37Rv ATCC 27294, 504 h
[14] = Selectivity index, ratio of TC50 for African green monkey Vero cells to MIC for Mycobacterium tuberculosis H37Rv ATCC 27294 expressing luxABCDE operon; assay type: toxicity; details: read-out: Selectivity Index
[15] = Cytotoxicity against African green monkey Vero cells assessed as reduction in cell viability after 2 days by cell-titer-glo luminescent assay; assay type: cell-based; details: chlorocebus sabaeus, read-out: TC50
[16] = tested on: Mycobacterium tuberculosis; assay: Antitubercular activity against Mycobacterium tuberculosis H37Rv ATCC 27294 expressing […] infected in mouse J774 cells assessed as log reduction in intracellular bacterial burden at 20 uM after 4 days by luminescence assay; assay type: functional
[17] = tested on: Mycobacterium tuberculosis; assay: Bactericidal activity against Mycobacterium tuberculosis H37Rv ATCC 27294 assessed as minimum concentration required to achieve a 2-log kill measured after 21 days; assay type: functional
[18] = tested on: Mycobacterium tuberculosis; assay: Antitubercular activity against Mycobacterium tuberculosis H37Rv ATCC 27294 expressing […] infected in mouse J774 cells assessed as log reduction in intracellular bacterial burden at 200 uM after 4 days by luminescence assay; assay type: functional

| SMILES | selectivity ratio [1] | IC50 (Trypanosoma cruzi [2]) [µM] | IC50 (L6) [µM] | MIC [3] [µM] | IC50 [4] [µM] | Ratio IC50 (Trypanosoma cruzi [5]) | IC50 [6] [µM] | IC90 [6] [µM] | MIC [6] [µM] | selectivity ratio [7] | also measured |
| --- | --- | --- | --- | --- | --- | --- | --- | --- | --- | --- | --- |
| O=[N+]([O-])c1nccn1CCCCNc1ncnc2ccccc12 | 3.9 | 2.32 | 8.96 | 9.18 (≈ 2.87 µg/mL) | 2.58 | 0.96 | > 200 | > 200 | > 200 | 3.5 |  |
| CO[C@H]1/C=C/O[C@@]2(C)Oc3c(C)c(O)c4c(O)c(c(/C=N/N5CCN(C)CC5)c(O)c4c3C2=O)NC(=O)/C(C)=C\C=C\[C@H](C)[C@H](O)[C@@H](C)[C@@H](O)[C@@H](C)[C@H](OC(C)=O)[C@@H]1C [RIFAMPIN] |  |  |  | 0.022 (≈ 0.0181 µg/mL) |  |  | 0.0046 | 0.0049 | 0.015 (≈ 0.0123 µg/mL) |  | MIC [8]: > 50 µM; IC50 [3]: 0.00072 µM; IC90 [3]: 0.0037 µM; MIC [9]: 0.011 µM (≈ 0.00905 µg/mL) |
| NNC(=O)c1ccncc1 [ISONIAZID] |  |  |  |  |  |  |  |  |  |  | MIC [8]: 0.67 µM (≈ 0.0919 µg/mL); log(activity) [10]: 2.6; log(activity) [11]: 2.7; MIC [9]: > 200 µM |
| O=[N+]([O-])c1nccn1CCCNc1ccnc2c(Cl)cccc12 | 97 | 1.11 | 107 | 2.89 (≈ 0.959 µg/mL) | 1.29 | 2.02 | > 200 | > 200 | > 200 | 83 |  |
| O=[N+]([O-])c1ncn(CCCCNc2ccnc3c(Cl)cccc23)n1 | 128 | 0.574 | 73.6 | > 100 | 0.038 | 3.9 | > 200 | > 200 | > 200 | 1940 | Activity [12]: 82% |
| O=[N+]([O-])c1cn2c(n1)OC[C@@H](OCc1ccc(OC(F)(F)F)cc1)C2 [PRETOMANID] |  |  |  |  |  |  |  |  |  |  | MBC [13]: 17.8 to 35.7 µM (≈ 6.39 to 12.8 µg/mL) |
| O=C(Cn1ccnc1[N+](=O)[O-])NCc1ccccc1 [BENZNIDAZOLE] |  | 2.24 |  |  |  |  |  |  |  |  |  |
| O=[N+]([O-])c1nccn1CCCCNc1ccnc2c(Cl)cccc12 | 18 | 2.04 | 36.2 | 4.14 (≈ 1.43 µg/mL) | 1.27 | 1.1 | 41 | > 200 | > 200 | 29 | selectivity ratio [14]: 16; MIC [8]: > 200 µM; CC50 at 48 h [15]: 66 µM; IC50 [3]: 0.15 µM; IC90 [3]: 0.84 µM; log(activity) [16]: 1.5; MBC [17]: inactive; MIC [9]: > 200 µM |
| Cl.O=[N+]([O-])c1ncn(CCCNc2ccnc3cc(Cl)ccc23)n1 |  |  |  |  | 0.309 | 2.2 |  |  |  |  |  |
| Cl.O=[N+]([O-])c1nccn1CCCCNc1ccnc2cc(Cl)ccc12 | 19 |  |  |  | 1.87 | 0.64 |  |  | > 128 | 36 | CC50 at 48 h [15]: > 1680 µM; MBC [13]: 12.8 to 25.7 µM |
| Clc1cccc2c(NCCCCn3cncn3)ccnc12 | 0.8 | 48.6 | 37.7 |  | 13.5 | 0.05 |  |  |  | 2.8 |  |
| O=[N+]([O-])c1nccn1CCCNc1ncnc2ccccc12 | 21 | 1.83 | 38.6 |  | 13.2 | 1.11 |  |  |  | 2.9 |  |
| Cc1ncc([N+](=O)[O-])n1CCO [METRONIDAZOLE] |  |  |  | 200 (≈ 34.2 µg/mL) |  |  | > 200 | > 200 | > 200 |  | IC50 [3]: 36 µM; IC90 [3]: 82 µM |
| O=[N+]([O-])c1ncn(CCCCNc2ncnc3ccccc23)n1 | 39 | 0.872 | 34.4 | > 100 | 0.39 | 2.57 | 51 | 140 | 200 (≈ 62.7 µg/mL) | 88 | MIC [8]: > 200 µM; log(activity) [18]: 0.7; Activity [12]: 76%; CC50 at 48 h [15]: > 100 µM; IC50 [3]: 11 µM; IC90 [3]: > 100 µM; MBC ([17]; H37Rv ATCC 27294, 504 h): 100 µM (≈ 31.3 µg/mL); MIC [9]: > 200 µM |
| Cl.O=[N+]([O-])c1ncn(CCCCNc2ccnc3cc(Cl)ccc23)n1 | 979 |  |  |  | 0.193 | 9.6 |  |  |  | 710 |  |
| C[C@H]1COc2c(N3CCN(C)CC3)c(F)cc3c(=O)c(C(=O)O)cn1c23.C[C@H]1COc2c(N3CCN(C)CC3)c(F)cc3c(=O)c(C(=O)O)cn1c23.O [LEVOFLOXACIN] |  |  |  |  |  |  |  |  |  |  | MIC [8]: 1.4 µM; MIC [9]: 1.3 µM |
| Cl.O=[N+]([O-])c1nccn1CCCNc1ccnc2cc(Cl)ccc12 | 24 |  |  |  | 1.4 | 2.15 |  |  | > 128 | 18 | CC50 at 48 h [15]: 399 µM; MBC [13]: 8.4 to 50 µM |
